Laboratory results published in article PMC9237828, “Chemically Tuning Resveratrol for the Effective Killing of Gram-Positive Pathogens” (Journal of Natural Products, 2022).
Converted amounts (≈) assume the structure as drawn. Read-outs that look alike come from different tables or passages of the source.

Tests used:
[1] = tested on: S.aureus LMG15975; experiment: microbe, parasite or virus in culture; type: cell-based, Staphylococcus aureus
[2] = tested on: E. faecium LMG11423; experiment: microbe, parasite or virus in culture; type: cell-based; settings: for MIC: Enterococcus faecium, LMG11423, 20 h, read-out: Minimal Inhibition Concentration (MIC) E. faecium LMG11423
[3] = tested on: S.aureus LMG8224; experiment: microbe, parasite or virus in culture; type: cell-based, Staphylococcus aureus
[4] = tested on: B. cereus ATCC10987; experiment: microbe, parasite or virus in culture; type: cell-based, Bacillus cereus
[5] = tested on: S.aureus LMG10147; experiment: microbe, parasite or virus in culture; type: cell-based, Staphylococcus aureus
[6] = tested on: C. tetani CECT4629; experiment: microbe, parasite or virus in culture; type: cell-based; settings: Table 1; 128 to 2 μM, RCM medium, anaerobic, 24 h
[7] = tested on: E. faecium LMG16003; experiment: microbe, parasite or virus in culture; type: cell-based; settings: for MIC: Enterococcus faecium, LMG16003, 20 h, read-out: Minimal Inhibition Concentration (MIC) E. faecium LMG16003
[8] = tested on: E. faecalis LMG08222; experiment: microbe, parasite or virus in culture; type: cell-based, Enterococcus faecalis; settings: for MIC: Enterococcus faecalis, LMG08222, 20 h, read-out: Minimal Inhibition Concentration (MIC) E. faecalis LMG08222
[9] = tested on: C. perfringens CECT376; experiment: microbe, parasite or virus in culture; type: cell-based
[10] = tested on: C. ihumii AP5; experiment: MIC test, anaerobes; type: cell-based; settings: 24 h; for MIC: read-out: Minimal Inhibition Concentration (MIC) C. ihumii AP5
Description: (§1) The resveratrol derivatives were serially diluted in cMHB (BD Difco) in 96-well microplates. Plates were then inoculated with the indicator bacteria at a final concentration of 5 × 10^5 CFU/mL and incubated at 37 °C for 20 h. In the case of the anaerobic bacteria (Clostridium and Clostridioides), the test was performed following the recommendation of CLSI for anaerobes[77] but using RCM medium instead of cMHB. The cultures were cultivated inside an anaerobic chamber at 37 °C for 24 h. All the tests were performed in triplicate.

[11] = tested on: C. beijerinckii B504; experiment: MIC test, anaerobes; type: cell-based; settings: for Minimal Inhibition Concentration (MIC) C. beijerinckii B504: Table 1, 128 to 2 μM, RCM medium, anaerobic, 24 h
Description: as §1

[12] = tested on: C. botulinum CECT551; experiment: microbe, parasite or virus in culture; type: cell-based; settings: for Minimal Inhibition Concentration (MIC) C. botulinum CECT551: Table 1, 128 to 2 μM, RCM medium, anaerobic, 24 h
[13] = tested on: E. faecalis LMG16216; experiment: microbe, parasite or virus in culture; type: cell-based, Enterococcus faecalis; settings: for MIC: Enterococcus faecalis, LMG16216, 20 h, read-out: Minimal Inhibition Concentration (MIC) E. faecalis LMG16216
[14] = tested on: B. cereus ATCC14579; experiment: microbe, parasite or virus in culture; type: cell-based, Bacillus cereus
[15] = tested on: E. faecalis V583; experiment: microbe, parasite or virus in culture; type: cell-based, Enterococcus faecalis; settings: for MIC: Enterococcus faecalis, V583, 20 h, read-out: Minimal Inhibition Concentration (MIC) E. faecalis V583
[16] = tested on: C. difficile CECT531; experiment: microbe, parasite or virus in culture; type: cell-based, Clostridioides difficile
[17] = tested on: MRC5 cells
[18] = tested on: B. cereus ATCC10987; experiment: Intracellular ATP level quantification (BacTiter-Glo); settings: 32 μM of the compounds (100 μM for CCCP), 30, 60, and 120 min, 37 °C
[19] = tested on: panel of aerobic and anaerobic Gram-positive bacteria; experiment: organism not typed; type: cell-based
[20] = tested on: E. coli LMG8224; experiment: Outer membrane permeabilization test (MIC with or without L-11 peptide)
[21] = Table 1, 128 to 2 μM, RCM medium, anaerobic

In the case of 3-butyl resveratrol [compound 9], the “Minimal Inhibition Concentration (MIC) S.aureus LMG15975” value [1] is reported as 32 ± 0 µM, the “Minimal Inhibition Concentration (MIC) E. faecium LMG11423” value [2] is reported as 64 ± 0 µM and the “Minimal Inhibition Concentration (MIC) S.aureus LMG8224” value [3] is reported as 64 ± 0 µM. The “Minimal Inhibition Concentration (MIC) B. cereus ATCC10987” value [4] was 32 ± 0 µM, the “Minimal Inhibition Concentration (MIC) S.aureus LMG10147” value [5] was 64 ± 0 µM and the “Minimal Inhibition Concentration (MIC) C. tetani CECT4629” value [6] was 16 ± 0 µM. The “Minimal Inhibition Concentration (MIC) E. faecium LMG16003” value [7] was 128 ± 0 µM, the “Minimal Inhibition Concentration (MIC) E. faecalis LMG08222” value [8] was 128 ± 0 µM and the “Minimal Inhibition Concentration (MIC) C. perfringens CECT376” value [9] was 64 ± 0 µM. For the same compound, the “Minimal Inhibition Concentration (MIC) C. ihumii AP5” value [10, 21] was 64 ± 0 µM, the “Minimal Inhibition Concentration (MIC) C. beijerinckii B504” value [11] was 26.6 ± 5.3 µM and the “Minimal Inhibition Concentration (MIC) C. botulinum CECT551” value [12] was 32 ± 0 µM. The “Minimal Inhibition Concentration (MIC) E. faecalis LMG16216” value [13] was 128 ± 0 µM, the “Minimal Inhibition Concentration (MIC) B. cereus ATCC14579” value [14] was 32 ± 0 µM and the “Minimal Inhibition Concentration (MIC) E. faecalis V583” value [15] was 128 ± 0 µM. The “Minimal Inhibition Concentration (MIC) C. difficile CECT531” value [16] was 64 ± 0 µM.
With “3-tert-Butyldimethylsilyl resveratrol [compound 16]” the “Minimal Inhibition Concentration (MIC) S.aureus LMG15975” value [1] was 16 ± 0 µM, the “Minimal Inhibition Concentration (MIC) E. faecium LMG11423” value [2] was 16 ± 0 µM and the “Minimal Inhibition Concentration (MIC) S.aureus LMG8224” value [3] was 16 ± 0 µM. For the same compound, the “Minimal Inhibition Concentration (MIC) B. cereus ATCC10987” value [4] was 16 ± 0 µM, the “Minimal Inhibition Concentration (MIC) S.aureus LMG10147” value [5] was 16 ± 0 µM and the IC50 [17] was 2.7 ± 0.3 µM. For the same compound, the “Minimal Inhibition Concentration (MIC) C. tetani CECT4629” value [6] was 6.6 ± 1.3 µM, the “Minimal Inhibition Concentration (MIC) E. faecium LMG16003” value [7] was 16 ± 0 µM and the “Minimal Inhibition Concentration (MIC) E. faecalis LMG08222” value [8] was 8 ± 0 µM. The “Minimal Inhibition Concentration (MIC) C. perfringens CECT376” value [9] was 32 µM, the MIC [10, 21] was 32 µM and the “Minimal Inhibition Concentration (MIC) C. beijerinckii B504” value [11] was 26.6 ± 5.3 µM. The “Minimal Inhibition Concentration (MIC) C. botulinum CECT551” value [12] was 16 µM, the “Minimal Inhibition Concentration (MIC) E. faecalis LMG16216” value [13] was 16 ± 0 µM and the “Minimal Inhibition Concentration (MIC) B. cereus ATCC14579” value [14] was 16 ± 0 µM. For the same compound, the “Minimal Inhibition Concentration (MIC) E. faecalis V583” value [15] was 16 ± 0 µM and the “Minimal Inhibition Concentration (MIC) C. difficile CECT531” value [16] was 26.6 ± 5.3 µM.
In the case of “3-triethylsilyl resveratrol [compound 20]”, the IC50 [17] is reported as 21.3 ± 5.9 µM.
With `N#CC(C#N)=NNc1cccc(Cl)c1` [CCCP, carbonyl cyanide m-chlorophenyl hydrazone] the “intracellular ATP levels” value [18] was “a time reduction of these levels was observed”.
Work on `CCCCCCCCCCCC(=O)OC[C@H]1O[C@@H](Oc2cc(O)cc(/C=C/c3ccc(O)cc3)c2)[C@H](O)[C@@H](O)[C@@H]1O` [compound 4] yielded an MIC ([1]; Staphylococcus aureus, LMG15975, 20 h, read-out: Minimal Inhibition Concentration (MIC) S.aureus LMG15975) of 16 µM (≈ 9.16 µg/mL), an MIC [2] of 53.3 ± 10.6 µM (≈ 30.5 µg/mL) and an MIC ([3]; Staphylococcus aureus, LMG8224, 20 h, read-out: Minimal Inhibition Concentration (MIC) S.aureus LMG8224) of 16 µM (≈ 9.16 µg/mL). The MIC ([4]; Bacillus cereus, ATCC10987, 20 h, read-out: Minimal Inhibition Concentration (MIC) B. cereus ATCC10987) was 8 µM (≈ 4.58 µg/mL), the MIC ([5]; Staphylococcus aureus, LMG10147, 20 h, read-out: Minimal Inhibition Concentration (MIC) S.aureus LMG10147) was 16 µM (≈ 9.16 µg/mL) and the MIC [7] was 53.3 ± 10.6 µM (≈ 30.5 µg/mL). The MIC [8] was 32 µM (≈ 18.3 µg/mL), the MIC ([9]; Clostridium perfringens, CECT376, 24 h, read-out: Minimal Inhibition Concentration (MIC) C. perfringens CECT376) was 32 µM (≈ 18.3 µg/mL) and the MIC [19] was 8 to 16 µM (≈ 4.58 to 9.16 µg/mL). The MIC ([20]; Escherichia coli, LMG8224, read-out: MIC (μM) L-11 + 0 μM) was > 128 µM, the “MIC (μM) L-11 + 4 μM” value ([20]; presence of 4 μM L-11 outer-membrane-perturbing peptide) was 6.6 ± 1.3 µM and the MIC [10] was 32 µM (≈ 18.3 µg/mL). It also gave an MIC ([11]; Clostridium beijerinckii, B504, 24 h, read-out: Minimal Inhibition Concentration (MIC) C. beijerinckii B504) of 16 µM (≈ 9.16 µg/mL), an MIC ([12]; Clostridium botulinum, CECT551, 24 h, read-out: Minimal Inhibition Concentration (MIC) C. botulinum CECT551) of 8 µM (≈ 4.58 µg/mL) and an MIC [13] of 64 µM (≈ 36.7 µg/mL). For the same compound, the MIC ([14]; Bacillus cereus, ATCC14579, 20 h, read-out: Minimal Inhibition Concentration (MIC) B. cereus ATCC14579) was 8 µM (≈ 4.58 µg/mL), the MIC [15] was 53.3 ± 10.6 µM (≈ 30.5 µg/mL) and the MIC ([16]; Clostridioides difficile, CECT531, 24 h, read-out: Minimal Inhibition Concentration (MIC) C. difficile CECT531) was 128 µM (≈ 73.3 µg/mL).
Work on `CCCCCCCCCCCCCCCCCC(=O)OC[C@H]1O[C@@H](Oc2cc(O)cc(/C=C/c3ccc(O)cc3)c2)[C@H](O)[C@@H](O)[C@@H]1O` [compound 6, piceid stearate] yielded an MIC [2] of 1 µM (≈ 0.657 µg/mL), an MIC [7] of 2.6 ± 0.6 µM (≈ 1.71 µg/mL) and an MIC [8] of 16 µM (≈ 10.5 µg/mL). The MIC [13] was 128 µM (≈ 84.1 µg/mL) and the MIC [15] was 128 µM (≈ 84.1 µg/mL).
